Measured values published in patent publication US20260285853A1, “COMPOUNDS AND METHODS FOR MODULATING SPLICING” (REMIX THERAPEUTICS INC., priority 2023, published 2026).

Assays:
Type in all cases: cell-based
MYB mRNA [1] = test: Gene panel canonical junction qPCR assay, decrease in CJ mRNA, Table 3; details: decrease in canonical junction (CJ) mRNA, gene panel qPCR, Table 3
Summary of the method: (§1)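 A673 cells were plated, left to adhere for 24 h, then dosed; K562 cells were plated in 96- or 384-well format and dosed directly. Both were incubated 24 h at 37 °C with an 11-point 3-fold series (top 10 uM final). Canonical junction mRNA was then read by cDNA synthesis and qPCR.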

HTT mRNA [2] = test: as above; details: decrease in canonical junction (CJ) mRNA, gene panel qPCR, Table 3
Summary of the method: as §1

MYB mRNA [3] = test: Splicing RT-qPCR assay (THP), Table 2A; details: Table 2A (THP); for AC50: AJ mRNA increase, read-out: MYB AJ (increase in alternative junction mRNA, AC50); for IC50: CJ mRNA decrease, read-out: MYB CJ (decrease in canonical junction mRNA, IC50)
HTT mRNA [4] = test: Splicing RT-qPCR assay (THP), Table 2A; details: Table 2A (THP); for AC50: AJ mRNA increase, read-out: HTT AJ (increase in alternative junction mRNA, AC50); for IC50: CJ mRNA decrease, read-out: HTT CJ (decrease in canonical junction mRNA, IC50)
[5] = test system: SH-SY5Y (human neuroblastoma) cells; test: Cell viability, Cell Titer Glo 2.0 assay; details: read-out: Viability SHSY5Y.3 GI50
Summary of the method: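 SH-SY5Y neuroblastoma cells are exposed to test compounds for 72 hours at 37 °C and 5% CO2, with final DMSO held at 0.1%. Cell viability is then measured with the CellTiter-Glo 2.0 assay.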

SMILES | IC50 (MYB mRNA [1]) [nM] | IC50 (HTT mRNA [2]) [nM] | AC50 (MYB mRNA [3]) [nM] | IC50 (MYB mRNA [3]) [nM] | AC50 (HTT mRNA [4]) [nM] | IC50 (HTT mRNA [4]) [nM] | GI50 [5] [nM]
Cn1cc2cc(NC(=O)c3c(F)cc(N4CCC(NC5CC5)CC4)c4cn(C)nc34)c(F)cc2n1 [Compound 422, 4-[4-(cyclopropylamino)-1-piperidy1]-6-fluoro-N-(6-fluoro-2-methyl-indazol-5-yl)-2-methyl-indazole-7-carboxamide] | < 100 | 100 to 1000 | < 100 | < 100 | 100 to 1000 | 100 to 1000 | 100 to 1000
COc1cc(NC(=O)c2c(F)cc(N3CCC(NC4CC4)CC3)c3cn(C)nc23)cc2cn(C)nc12 [Compound 423, 4-[4-(cyclopropylamino)-1-piperidyl]-6-fluoro-N-(7-methoxy-2-methyl-indazol-5-yl)-2-methyl-indazole-7-carboxamide] | 100 to 1000 | 1000 to 10000 | 100 to 1000 | 100 to 1000 | 1000 to 10000 | 1000 to 10000 | 1000 to 10000
CC(=O)NCc1cn2cc(NC(=O)c3c(F)cc(N4CCC(NC5CC5)CC4)c4cn(C)nc34)nc2c(C)n1 [Compound 424, N-[6-(acetamidomethyl)-8-methyl-imidazo [1,2-a]pyrazin-2-yl]-4-[4-(cyclopropylamino)-1-piperidyl]-6-fluoro-2-methyl-indazole-7-carboxamide] | > 10000 | > 10000 | > 10000 | > 10000 | > 10000 | > 10000 | > 10000
COc1c(NC(=O)c2c(F)cc(N3CCC(NC4CC4)CC3)c3cn(C)nc23)cc2cn(C)nc2c1C [Compound 425, 4-[4-(cyclopropylamino)-1-piperidy1]-6-fluoro-N-(6-methoxy-2,7-dimethyl-indazol-5-y1)-2-methyl-indazole-7-carboxamide] | 100 to 1000 | 1000 to 10000 | 100 to 1000 | 100 to 1000 | 1000 to 10000 | 1000 to 10000 | 100 to 1000
Cn1cc2c(N3CCC(NC4CC4)CC3)cc(F)c(C(=O)Nc3cc4cn(C)nc4n(C)c3=O)c2n1 [Compound 426, 4-[4-(cyclopropylamino)-1-piperidy1]-N-(2,7-dimethyl-6-oxo-pyrazolo[3,4-b]pyridin-5-y1)-6-fluoro-2-methyl-indazole-7-carboxamide] | 100 to 1000 | 1000 to 10000 | 100 to 1000 | 100 to 1000 | 1000 to 10000 | 1000 to 10000 | 1000 to 10000
Cc1cn2cc(NC(=O)c3c(F)cc(N4CCC(NC5CC5)CC4)c4cn(C)nc34)nc(-n3ccccc3=O)c2n1 [Compound 427, 4-[4-(cyclopropylamino)-1-piperidyl]-6-fluoro-2-methyl-N-[2-methyl-8-(2-oxo-1-pyridyl)-imidazo[1,2-a]-pyrazin-6-yl]-indazole-7-carboxamide] | > 10000 | > 10000 | 1000 to 10000 | > 10000 | > 10000 | > 10000 | > 10000
COc1cc2nn(C)cc2cc1NC(=O)c1c(F)cc(N2[C@@H]3CC[C@H]2C[C@@H](NC2CC2)C3)c2cn(C)nc12 [Compound 428, 4-[(1R,5S)-3-(cyclo-propyl-amino)-8-azabicyclo [3.2.1]octan-8-yl]-6-fluoro-N-(6-methoxy-2-methyl-indazol-5-yl)-2-methyl-indazole-7-carboxamide] | 1000 to 10000 | > 10000 | 1000 to 10000 | 1000 to 10000 | > 10000 | > 10000 | 1000 to 10000
COc1cc2nn(C)cc2cc1NC(=O)c1c(F)cc(N2[C@@H]3CC[C@H]2C[C@H](NC2CC2)C3)c2cn(C)nc12 [Compound 429, 4-[(1S,5R)-3-(cyclopropyl-amino)-8-azabicyclo-[3.2.1]octan-8-yl]-6-fluoro-N-(6-methoxy-2-methyl-indazol-5-yl)-2-methyl-indazole-7-carboxamide] | 1000 to 10000 | 1000 to 10000 | 1000 to 10000 | 1000 to 10000 | > 10000 | 1000 to 10000 | 1000 to 10000
COc1nc2nn(C)cc2cc1NC(=O)c1c(F)cc(N2CCC(NC3CC3)CC2)c2cn(C)nc12 [Compound 431, 4-[4-(cyclopropylamino)-1-piperidyl]-6-fluoro-N-(6-methoxy-2-methyl-pyrazolo-[3,4-b]pyridin-5-yl)-2-methyl-indazole-7-carboxamide] | < 100 | 100 to 1000 | < 100 | < 100 | 100 to 1000 | 100 to 1000 | 100 to 1000
COc1cn2nc(C)cc2cc1NC(=O)c1c(F)cc(N2CCC(NC3CC3)CC2)c2cn(C)nc12 [Compound 432, 4-[4-(cyclopropylamino)-1-piperidyl]-6-fluoro-N-(6-methoxy-2-methyl-pyrazolo[1,5-a]pyridin-5-yl)-2-methyl-indazole-7-carboxamide] | < 100 | 100 to 1000 | < 100 | < 100 | 100 to 1000 | 100 to 1000 | < 100
COc1c(NC(=O)c2c(F)cc(N3CCC(NC4CC4)CC3)c3cn(C)nc23)cc2cn(C)nc2c1Cl [Compound 433, N-(7-chloro-6-methoxy-2-methyl-indazol-5-yl)-4-[4-(cyclopropylamino)-1-piperidyl]-6-fluoro-2-methyl-indazole-7-carboxamide] | < 100 | 100 to 1000 | < 100 | < 100 | 100 to 1000 | 100 to 1000 | < 100
COc1cc2nn(C)cc2cc1NC(=O)c1cnc(N2CCC(NC3CC3)CC2)c2cn(C)nc12 [Compound 434, 4-[4-(cyclopropylamino)-1-piperidyl]-N-(6-methoxy-2-methyl-indazol-5-yl)-2-methyl-pyrazolo[4,3-c]pyridine-7-carboxamide] | < 100 | 100 to 1000 | < 100 | < 100 | 100 to 1000 | 100 to 1000 | 1000 to 10000
CNc1cc(N2CCC(NC3CC3)CC2)c2cn(C)nc2c1C(=O)Nc1cc2cn(C)nc2cc1OC [Compound 435, 2,2,2-trifluoroacetate] | > 10000 | > 10000 | > 10000 | > 10000 | > 10000 | > 10000 | 1000 to 10000
COc1cc2nn(C)cc2cc1NC(=O)c1c(Cl)cc(N2CCC(NC3CC3)CC2)c2cn(C)nc12 [Compound 436, 6-chloro-4-[4-(cyclopropylamino)-1-piperidyl]-N-(6-methoxy-2-methyl-indazol-5-yl)-2-methyl-indazole-7-carboxamide] | 100 to 1000 | > 10000 | 100 to 1000 | 100 to 1000 | > 10000 | > 10000 | 1000 to 10000
COc1cc2nn(C)cc2cc1C#Cc1ccc(N2CCC(NC3CC3)CC2)c2cn(C)nc12 [Compound 437, N-cyclopropyl-1-[7-[2-(6-methoxy-2-methyl-indazol-5-yl)ethynyl]-2-methyl-indazol-4-yl]-piperidin-4-amine] | > 10000 | > 10000 | > 10000 | > 10000 | > 10000 | > 10000 | 1000 to 10000
